US12110283B2, “Carbonic anhydrase targeting agents and methods of using same” (VisEn Medical, Inc., priority 2011, dated 2024)

Tests used:
[1] = tested on: HeLa tumors; assay: Imaging of tumors in vivo using CA agents (planar reflectance and FMT); conditions: NU/NU mice, bilateral HeLa tumors, 2 nmoles i.v., 24 hrs post-injection
Method: In this experiment, NU/NU mice 6-8 weeks old (Charles River Laboratory, Wilmington, MA) were injected subcutaneously (s.c.) with about 2×10^6 HeLa cells bilaterally in each mammary fat pad. When tumors reached an approximate size of 3×3 mm, mice were injected intravenously (i.v.) with 2 nmoles of carbonic anhydrase agent C5 or nonbinding control agent D3 (5 mice/probe+2 mice/no probe as control) in 100 μL volume via tail vein. Imaging was conducted at 24 hrs post-injection using a Fluorescence Molecular Tomography system (VisEn Medical, Bedford, MA) that is commercially available.

[2] = Biodistribution of i.v. administered compound in HeLa tumor bearing mice; format: in vivo; conditions: 2 nmoles i.v., 24 hr, excised tissues, reflectance mode
Method: Female NU/NU mice 6-8 weeks old (Charles River Laboratory, Wilmington, MA) were injected subcutaneously (s.c.) with HeLa cells (5×10^6) in the first mammary fat pads. Once tumors reached the desired volume (measured with calipers using the formula volume mm^3=(length×width^2)/2), mice were injected i.v. with compound C5 (2 nmoles) or nonbinding control D3. Mice were sacrificed by carbon dioxide asphyxiation 24 hr later and certain tissues removed, rinsed with saline, blotted dry, and the imaged on a VisEn FMT 2500 using the reflectance mode. Regions of interest (ROIs) were drawn around each organ using the FMT Software and the mean fluorescence (reported as counts/energy) determined for each organ and normalized to the mean fluorescence in tumors taken to be 100%.

[3] = tested on: HeLa tumors; assay: Effect of acetazolamide treatment on carbonic anhydrase signal in HeLa tumor-bearing mice (FMT); format: in vivo; conditions: for accumulation in tumors as quantified by FMT (FIG. 5B): 24 hours
Method: HeLa tumor-bearing mice were randomized once their tumors reached the desired volume and injected i.v. with either C5 (2 nmoles). For competition studies, mice were injected with the acetazolamide (10 mg/kg) followed 60 minutes later by compound C5 (2 nmoles). Imaging was performed 24 hours after administration of the agents using the FMT 2500.

[4] = tested on: HeLa tumors; assay: Detection of in vivo induction of hypoxia in mice with HeLa tumors (FRI of excised tumors); conditions: 2 nmol i.v., tumors excised and imaged by FRI 24 hours after injection
Method: Female nu/nu mice at 4-5 weeks old, obtained from (Harlan Laboratory, Indianapolis, IN) were injected subcutaneously (s.c.) with HeLa cells (1.5×10^6 cells/site) in the mammary fat pads. Once tumors reached the desired volume of 600-700 mm^3 (measured with calipers using the formula volume mm^3=length×width^2/2), mice were grouped randomly (n=4-5 mice/group) for with some exposed to controlled hypoxic environmental conditions (8% oxygen) in a chamber with monitored oxygen levels. Control mice with matched tumor volumes were maintained under normal housing conditions. C5, (2 nmol) was injected intravenously to all mice at 24 hours after the initiation of the experiment. Hypoxic mice were placed back into the hypoxic chamber after the injection, and tumors were excised and imaged by fluorescence reflectance imaging (FRI) 24 hours following injection. FIGS. 6A-B show fluorescence images of the excised tumors from mice that were placed in normal air (left) and 8% 02 (right).

With `CC1(C)C(/C=C/C(=C/C=C2/N(CCCS(=O)(=O)O)c3ccc4c(S(=O)(=O)O)cc(S(=O)(=O)O)cc4c3C2(C)C)c2ccc(C(=O)NCCC(=O)Nc3nnc(S(N)(=O)=O)s3)cn2)=[N+](CCCS(=O)(=O)[O-])c2ccc3c(S(=O)(=O)O)cc(S(=O)(=O)O)cc3c21` [Compound C5, 3-(2-((1E,3Z,5E)-5-(1,1-dimethyl-6,8-disulfo-3-(3-sulfopropyl)-1H-benzo[e]indol-2(3H)-ylidene)-3-(5-((3-oxo-3-((5-sulfamoyl-1,3,4-thiadiazol-2-yl)amino)propyl)carbamoyl)pyridin-2-yl)penta-1,3-dien-1-yl)-1,1-dimethyl-6,8-disulfo-1H-benzo[e]indol-3-ium-3-yl)propane-1-sulfonate] the “tumor signal by planar reflectance and tomographic imaging” value [1] was “tumors can be imaged effectively”, the “tissue fluorescence (biodistribution), normalized to tumors (FIG. 4)” value [2] was “very low in most tissues with the high concentrations found in tumors, and lower concentrations accumulated in the kidneys” and the “accumulation in tumors as quantified by FMT (FIG. 5B)” value ([3]; 2 nmoles i.v., no acetazolamide) was 116 pmol. For the same compound, the “accumulation in tumors as quantified by FMT (FIG. 5B)” value ([3]; acetazolamide 10 mg/kg 60 minutes before agent (2 nmoles i.v.)) was 39 pmol, the “tumor signal in tomographic images after acetazolamide compared to untreated animals (FIG. 5A)” value ([3]; acetazolamide 10 mg/kg 60 minutes before agent (2 nmoles i.v.), imaging at 24 hours) was “reduced signal” and the “less tumor signal in acetazolamide treated animals” value ([3]; acetazolamide 10 mg/kg 60 minutes before agent, versus untreated) was “approximately 66%”. The “uptake in excised tumors, hypoxic atmosphere (8% oxygen) versus normal air (FIGS. 6A-B)” value [4] was “significantly greater uptake”.
